What was measured:
Human TRPA1 (hTRPA1) [1] = target: T1, Human TRPA1 (hTRPA1) (Homo sapiens, UniProt O75762); experiment: TRPA1 Activation Test 2: intracellular Ca2+ imaging assay 2-1 to 2-3, hTRPA1 stably expressing cell line; type: cell-based; settings: for TRPA1 activation rates: Table 10; for Concentration dependence of TRPA1 activity (in words): additional experiments; for TRPA1 activating action (in words): hTRPA1 stably expressing cell line; for TRPA1 activation rate, With antagonist / TRPA1 activation rate, Without antagonist: Table 11
T1 construct: expressed in transfected cells
Method: (§1) DNAs encoding genes described in the following Table 2 were inserted into pcDNA 5/TO vector (Invitrogen) to prepare various expression vectors.
(§2) These expression vectors were transfected into T-REx™_293 cells (Invitrogen) by a conventional method using Lipofectamine LTX (Invitrogen). Then, various transfectants were cultured and cloned by a conventional method using Dulbecco's Modified Eagle Medium (DMEM, Nacalai Tesque Inc.), containing 10% fetal bovine serum (FBS, Cytiva), […] of hygromycin B, and 5 μg/mL of blasticidin S, as a drug selection medium to obtain a hTRPA1 stably expressing cell line, a hTRPV1 stably expressing cell line, and a hTRPM8 stably expressing cell line.
(§3) A hTRPA1 stably expressing cell line in which expression of hTRPA1 had been induced in advance by a conventional method was prepared in a 96 well clear bottom plate, and the hTRPA1 activating action of rhein (produced by Tokyo Chemical Industry Co., Ltd.) was tested. Specifically, after each well was washed with PBS, 50 μL of an assay buffer (Hanks' balanced salt solution containing no calcium ion or magnesium ion that contained 1 mM of CaCl2 dihydrate, 20 mM of HEPES, and 0.1% BSA) containing calcium fluorescent indicator Calbryte™ 520 AM (produced by AAT Bioquest) in a final concentration of 4 μM was added, followed by incubating at 33° C. for 45 minutes. After washing with the assay buffer, 100 μL of the assay buffer was added to each well. This plate was set to FlexStation 3 (Molecular Devices, LLC), and a fluorescence intensity (excitation wavelength 490 nm, fluorescence wavelength 525 nm) at 31° C. was measured every two seconds, and 30 seconds after the start of the measurement, 100 μL of an assay buffer containing a test sample (allyl isothiocyanate (AITC) of positive control or rhein) which was prepared to have a certain final concentration or DMSO was added. Then, a well in which an assay buffer containing ionomycin (having a final concentration of 10 μM after the addition) instead of the test samples was added was also prepared as a reference for fluorescence intensity.
(§4) The measurement was continued from the start of the measurement up to 120 seconds, and the TRPA1 activation ability of the test samples was calculated in accordance with the following formula.
(§5) Activation rate (%)=(Fmax[s]−F0)/(Fmax[i]−F0)×100 • Fmax[s]: The maximum value of the fluorescence intensity when the test sample or positive control was added • F0: The average value of the fluorescence intensity for 20 seconds after the start of the measurement (base line) • Fmax[i]: The maximum value of the fluorescence intensity when ionomycin was added
The TRPA1 activation ability of each test sample was measured in the same manner as in the above (2) except the test was conducted with A-967079 (1 μM), which is a TRPA1-specific antagonist, or without A-967079. In addition, intracellular Ca^2+ imaging assay was conducted in the same manner as in the above (2) except that a hTRPV1 stably expressing cell line, a hTRPM8 stably expressing cell line, or a Mock cell was used instead of the hTRPA1 stably expressing cell line. Note that capsaicin was used as positive control for the hTRPV1 stably expressing cell line, and icilin was used as positive control for the hTRPM8 stably expressing cell line.
A TRPA1 activation ability was measured in the same manner as in the above (2) by using, as a test sample, rhein or compounds described in the following Table 10, which had anthraquinone structures similar to rhein, at a concentration of 200 μM of the test sample.

[2] = Anorexia Improving Test 3: cumulative amounts of food ingested of mice, rhein with or without A-967079; type: in vivo; settings: oral, rhein 100 μmol/kg body weight, A-967079 10 μmol/kg body weight
Method: Male ICR mice were housed in individual cages in which ALPHA-dri (Shepherd Specialty Papers) was laid, and were acclimatized and raised for at least one week or more while a powder feed (CE-2, CLEA Japan, Inc.) was given to the mice by using a powder feeder for mice (SN-950, Shinano Manufacturing Co., Ltd.). Then, for several days before the experiment, handling and oral administration training using a feeding needle (FG4202, Fuchigami Kikai Co., Ltd.) were conducted every day. To 9 week-old mice under ad libitum feeding conditions, a carrier solution (containing 2% of dimethyl sulfoxide and 98% of a 0.5% methyl cellulose solution in volume ratio) or a rhein solution (obtained by dissolving 8.53 mg of rhein in 1 mL of the carrier solution) was orally administered from 9:20 a.m. (10 mL/kg body weight). The dosage of rhein was 300 μmol/kg body weight in terms of molar concentration. Then, a feeder the mass of which had been measured in advance was set in the cage at 9:30 a.m. The masses of the feeder and the feed spilled in the cage 0.5, 1, 2, and 3 hours after the start of the feeding experiment were measured, and the ingested mass (g) at each time was measured (n=6). The ingested mass (g) of each mouse was measured in the same manner as in anorexia improving test 2 (the above item 5) except that 10 mL/kg body weight of a carrier solution, a rhein solution (100 μmol/kg body weight), an A-967079 solution (10 μmol/kg body weight), or a mixed solution of A-967079 and rhein (in 10 μmol/kg body weight and 100 μmol/kg body weight, respectively) was orally administered to the mouse. Results obtained by calculating the cumulative amounts of food ingested and conducting a multiple comparison (multiple t-test) by the Dunn-Bonferroni method are shown in Table 12.

Human TRPA1 (hTRPA1) [3] = target: T1, Human TRPA1 (hTRPA1); experiment: TRPA1 Activation Test 1: intracellular Ca2+ imaging assay 1-1 to 1-3, hTRPA1 stably expressing cell line; type: cell-based; settings: for TRPA1 activating action with TRPA1-specific antagonist (in words) / TRPA1 activation rate, With antagonist: A-967079 1 μM; for TRPA1 activating action (in words): hTRPA1 stably expressing cell line; for TRPA1 activation rate, With antagonist / TRPA1 activation rate, Without antagonist: Table 6
Method: as §1, §2
as §3, with “bottom plate (black),” for “bottom plate,”, “and a” for “and the”, “of the purified oxylipin or the R2 fraction (both were assumed to contain a compound having a molecular weight of 294) obtained in the above item 1” for “of rhein (produced by Tokyo Chemical Industry Co., Ltd.)”, “calcium ions” for “calcium ion”, “magnesium ions” for “magnesium ion”, “sample” for “sample (allyl isothiocyanate (AITC) of positive control or rhein)”
as §4
as §5, with “sample or the positive control” for “sample or positive control”
The TRPA1 activation ability was measured in the same manner as in the above (2) except that the R2 fraction or allyl isothiocyanate (AITC) was used as a test sample and the test was conducted with A-967079 (1 μM), which is a TRPA1-specific antagonist, or without A-967079. In addition, regarding the R2 fraction, the hTRPV1 stably expressing cell line or the hTRPM8 stably expressing cell line was used instead of the hTRPA1 stably expressing cell line to conduct the same test. Note that as positive controls, capsaicin was used for the hTRPV1 stably expressing cell line and icilin was used for the hTRPM8 stably expressing cell line.
The TRPA1 activation ability was measured in the same manner as in the above (2) except that each isolated compound or allyl isothiocyanate (AITC) was used as a test sample and the test was conducted with A-967079 (1 μM), which was a TRPA1-specific antagonist, or without A-967079.

T1 sequence (O75762 whole entry): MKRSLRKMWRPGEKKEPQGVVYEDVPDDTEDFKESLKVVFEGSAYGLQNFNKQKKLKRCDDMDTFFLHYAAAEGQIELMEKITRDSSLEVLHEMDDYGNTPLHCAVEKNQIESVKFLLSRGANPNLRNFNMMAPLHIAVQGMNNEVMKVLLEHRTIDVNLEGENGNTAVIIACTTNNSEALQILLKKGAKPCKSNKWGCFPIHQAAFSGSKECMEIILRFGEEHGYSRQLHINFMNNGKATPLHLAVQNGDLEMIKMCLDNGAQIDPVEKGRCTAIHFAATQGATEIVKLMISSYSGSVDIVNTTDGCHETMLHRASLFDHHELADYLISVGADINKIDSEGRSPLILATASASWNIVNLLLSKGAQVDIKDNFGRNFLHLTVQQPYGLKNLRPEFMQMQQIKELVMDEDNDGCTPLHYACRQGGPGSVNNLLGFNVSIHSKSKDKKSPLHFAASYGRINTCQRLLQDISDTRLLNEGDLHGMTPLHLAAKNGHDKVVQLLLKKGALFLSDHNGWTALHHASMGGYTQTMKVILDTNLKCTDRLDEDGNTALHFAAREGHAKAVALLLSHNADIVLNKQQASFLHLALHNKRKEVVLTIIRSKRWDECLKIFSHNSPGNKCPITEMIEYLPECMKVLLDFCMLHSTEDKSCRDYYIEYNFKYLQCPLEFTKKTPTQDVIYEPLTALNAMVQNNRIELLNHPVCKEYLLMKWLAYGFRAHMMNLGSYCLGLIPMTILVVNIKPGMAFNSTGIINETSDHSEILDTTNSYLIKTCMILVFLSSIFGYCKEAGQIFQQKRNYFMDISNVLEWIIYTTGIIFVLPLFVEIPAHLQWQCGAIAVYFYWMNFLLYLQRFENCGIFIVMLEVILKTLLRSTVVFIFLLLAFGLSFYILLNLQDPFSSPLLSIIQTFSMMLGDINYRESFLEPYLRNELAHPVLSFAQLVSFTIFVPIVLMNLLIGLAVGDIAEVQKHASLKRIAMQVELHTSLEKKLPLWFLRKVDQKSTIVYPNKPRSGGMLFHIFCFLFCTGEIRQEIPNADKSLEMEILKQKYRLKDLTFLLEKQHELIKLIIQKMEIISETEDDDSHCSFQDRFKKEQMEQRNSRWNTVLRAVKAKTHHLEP

## O=C1c2cccc(O)c2C(=O)c2cccc(O)c21 [Anthrarufin, reference compound]
Human TRPA1 (hTRPA1) [1]; test sample 200 μM
  TRPA1 activation rates: 0.587 ± 0.0172%

## Cc1cc(O)c2c(c1)C(=O)c1cccc(O)c1C2=O [Chrysophanol, reference compound]
Human TRPA1 (hTRPA1) [1]; test sample 200 μM
  TRPA1 activation rates: 3.27 ± 0.439%

## CCC(=N\O)/C(C)=C/c1ccc(F)cc1 [Compound A-967079, reference compound]
[2]; 0.5 hour after the administration
  Cumulative amounts of food ingested of mice: 0.026 ± 0.0093 g
[2]; 1 hour after the administration
  Cumulative amounts of food ingested of mice: 0.042 ± 0.015 g
[2]; 2 hours after the administration
  Cumulative amounts of food ingested of mice: 0.088 ± 0.027 g
[2]; 3 hours after the administration
  Cumulative amounts of food ingested of mice: 0.20 ± 0.066 g

## CC/C=C/CC(O)/C=C/C=C\CCCCCCCC(=O)O (stereo not drawn) [Compound R1-2]
Human TRPA1 (hTRPA1) [3]
  TRPA1 activating action with TRPA1-specific antagonist (in words): inhibited by the TRPA1-specific antagonist
  TRPA1 activating action (in words): exhibited the TRPA1 activating action
Human TRPA1 (hTRPA1) [3]; test sample 200 μM
  TRPA1 activation rate, With antagonist: 1.75 ± 0.443%
  TRPA1 activation rate, Without antagonist: 32.0 ± 1.40%
Human TRPA1 (hTRPA1) [3]; test sample 500 μM
  TRPA1 activation rate, With antagonist: 8.24 ± 1.13%
  TRPA1 activation rate, Without antagonist: 95.9 ± 1.79%

## CCC(O)/C=C/C=C\C/C=C\CCCCCCCC(=O)O (stereo not drawn) [Compound R2-2]
Human TRPA1 (hTRPA1) [3]
  TRPA1 activating action with TRPA1-specific antagonist (in words): inhibited by the TRPA1-specific antagonist
  TRPA1 activating action (in words): exhibited the TRPA1 activating action
Human TRPA1 (hTRPA1) [3]; test sample 200 μM
  TRPA1 activation rate, With antagonist: 0.71 ± 0.0743%
  TRPA1 activation rate, Without antagonist: 21.6 ± 5.63%
Human TRPA1 (hTRPA1) [3]; test sample 500 μM
  TRPA1 activation rate, With antagonist: 1.96 ± 0.548%
  TRPA1 activation rate, Without antagonist: 77.5 ± 0.988%

## CC/C=C\C/C=C\C=C\C(O)CCCCCCCC(=O)O (stereo not drawn) [Compound R3]
Human TRPA1 (hTRPA1) [3]
  TRPA1 activating action with TRPA1-specific antagonist (in words): inhibited by the TRPA1-specific antagonist
  TRPA1 activating action (in words): exhibited the TRPA1 activating action
Human TRPA1 (hTRPA1) [3]; test sample 200 μM
  TRPA1 activation rate, With antagonist: 0.58 ± 0.0564%
  TRPA1 activation rate, Without antagonist: 16.3 ± 0.812%
Human TRPA1 (hTRPA1) [3]; test sample 500 μM
  TRPA1 activation rate, With antagonist: 0.731 ± 0.237%
  TRPA1 activation rate, Without antagonist: 93.6 ± 1.92%

## O=C1c2cccc(O)c2C(=O)c2c(O)cccc21 [Dantron, reference compound]
Human TRPA1 (hTRPA1) [1]; test sample 200 μM
  TRPA1 activation rates: 4.72 ± 0.762%

## Cc1cc(O)c2c(c1)C(=O)c1cc(O)cc(O)c1C2=O [Emodin, emodin]
Human TRPA1 (hTRPA1) [1]; A-967079
  TRPA1 activating action with TRPA1-specific antagonist (in words): inhibited by A-967079
Human TRPA1 (hTRPA1) [1]
  Concentration dependence of TRPA1 activity (in words): exhibited TRPA1 activity in concentration dependent manner
  TRPA1 activating action (in words): exhibited TRPA1 activating actions
Human TRPA1 (hTRPA1) [1]; test sample 100 μM, A-967079
  TRPA1 activation rate, With antagonist: 0.881 ± 0.134 %
Human TRPA1 (hTRPA1) [1]; test sample 100 μM
  TRPA1 activation rate, Without antagonist: 49.4 ± 1.41%
Human TRPA1 (hTRPA1) [1]; test sample 200 μM, A-967079
  TRPA1 activation rate, With antagonist: 2.96 ± 0.246 %
Human TRPA1 (hTRPA1) [1]; test sample 200 μM
  TRPA1 activation rates: 43.1 ± 1.72%
  TRPA1 activation rate, Without antagonist: 64.8 ± 3.73%
Human TRPA1 (hTRPA1) [1]; test sample 400 μM, A-967079
  TRPA1 activation rate, With antagonist: 6.25 ± 1.70 %
Human TRPA1 (hTRPA1) [1]; test sample 400 μM
  TRPA1 activation rate, Without antagonist: 71.29 ± 1.08%

## O=C(O)c1cc(O)c2c(c1)[C@H]([C@H]1c3cc(C(=O)O)cc(O)c3C(=O)c3c(O[C@@H]4O[C@H](CO)[C@@H](O)[C@H](O)[C@H]4O)cccc31)c1cccc(O[C@@H]3O[C@H](CO)[C@@H](O)[C@H](O)[C@H]3O)c1C2=O [Sennoside A, reference compound]
Human TRPA1 (hTRPA1) [1]; test sample 200 μM
  TRPA1 activation rates: 3.33 ± 0.705%

## aloe-emodin
Human TRPA1 (hTRPA1) [1]
  Concentration dependence of TRPA1 activity (in words): exhibited TRPA1 activity in concentration dependent manner
  TRPA1 activating action (in words): exhibited TRPA1 activating actions
Human TRPA1 (hTRPA1) [1]; test sample 200 μM
  TRPA1 activation rates: 15.3 ± 0.743%

## physcion
Human TRPA1 (hTRPA1) [1]
  Concentration dependence of TRPA1 activity (in words): exhibited TRPA1 activity in concentration dependent manner
  TRPA1 activating action (in words): exhibited TRPA1 activating actions
Human TRPA1 (hTRPA1) [1]; test sample 200 μM
  TRPA1 activation rates: 24.3 ± 0.760%

Reference: patent US20250009697A1, “COMPOSITION FOR INCREASING AMOUNT OF FOOD INGESTED AND/OR IMPROVING ANOREXIA, AND COMPOSITION FOR ACTIVATING TRANSIENT RECEPTOR POTENTIAL ANKYRIN 1” (HOUSE FOODS GROUP INC., priority 2021, published 2025)
